Target: Axl (Homo sapiens (Human), UniProt P30530)
Assay: Phospho-Akt in-cell Western assay (Axl-antibody cross-linking stimulation)
Assay type: cell-based
Conditions: inhibition of Axl activity
Outline: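 HeLa cells on poly-L-lysine, starved 24 hrs with Axl/Fc, pre-treated with compound 1 hr at 37° C., then stimulated 5 min with Axl primary/secondary antibody cluster. Fixed cells probed for phospho-Akt by chemiluminescent in-cell Western; signal normalized to crystal violet cell number.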

[1] = phospho-Akt in-cell Western assay
[2] = Hela cells, phospho-Akt readout, Table 5, formula (Ia3)

Sequence of Axl (P30530 26-894): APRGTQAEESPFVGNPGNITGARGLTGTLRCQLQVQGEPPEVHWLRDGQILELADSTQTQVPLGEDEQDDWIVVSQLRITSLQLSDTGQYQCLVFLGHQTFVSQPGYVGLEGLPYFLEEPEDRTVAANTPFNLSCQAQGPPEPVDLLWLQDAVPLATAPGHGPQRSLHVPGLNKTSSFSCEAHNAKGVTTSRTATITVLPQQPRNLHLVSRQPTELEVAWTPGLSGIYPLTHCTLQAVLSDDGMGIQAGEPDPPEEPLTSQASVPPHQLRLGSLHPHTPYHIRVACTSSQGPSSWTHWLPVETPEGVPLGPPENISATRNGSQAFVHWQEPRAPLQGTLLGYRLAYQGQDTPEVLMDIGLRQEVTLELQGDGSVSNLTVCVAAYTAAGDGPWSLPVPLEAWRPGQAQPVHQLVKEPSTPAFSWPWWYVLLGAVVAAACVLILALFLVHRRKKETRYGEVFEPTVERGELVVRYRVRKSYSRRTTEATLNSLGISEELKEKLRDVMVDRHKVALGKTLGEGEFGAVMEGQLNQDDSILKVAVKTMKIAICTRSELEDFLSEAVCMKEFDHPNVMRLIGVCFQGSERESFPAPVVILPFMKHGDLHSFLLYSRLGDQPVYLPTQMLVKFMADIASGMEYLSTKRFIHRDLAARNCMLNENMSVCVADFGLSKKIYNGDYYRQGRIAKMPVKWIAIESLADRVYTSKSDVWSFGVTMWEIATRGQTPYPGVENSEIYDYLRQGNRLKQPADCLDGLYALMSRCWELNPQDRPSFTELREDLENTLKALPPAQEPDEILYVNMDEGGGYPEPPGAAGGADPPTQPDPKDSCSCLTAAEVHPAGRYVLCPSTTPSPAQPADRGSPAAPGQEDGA

IC50 [1] [µM]	IC50 [2] [µM]	SMILES
< 1	–	Cc1csc2c(-n3nc(Nc4ccc(N5CCN(C6CC7CCC6C7)[C@@H](C)C5)c(F)c4)nc3N)ncnc12 (stereo partly drawn) [Compound 249, 1-(7-methylthieno[3,2-d]pyrimidin-4-yl)-N^3-(3-fluoro-4-(3-(S)-methyl-4-(bicyclo[2.2.1]heptan-2-yl)piperazin-1-yl)phenyl)-1H-1,2,4-triazole-3,5-diamine]
< 1	–	Cc1csc2c(-n3nc(Nc4ccc(N5CCN([C@H]6C[C@@H]7CC[C@H]6C7)[C@H](C)C5)c(F)c4)nc3N)ncnc12 [Compound 250, 1-(7-methylthieno[3,2-d]pyrimidin-4-yl)-N^3-(3-fluoro-4-(3-(R)-methyl-4-((1S,2S,4R)-bicyclo[2.2.1]heptan-2-yl)piperazin-1-yl)phenyl)-1H-1,2,4-triazole-3,5-diamine]
< 1	–	Cc1csc2c(-n3nc(Nc4ccc(N5CCN([C@H]6C[C@@H]7CC[C@H]6C7)[C@@H](C)C5)c(F)c4)nc3N)ncnc12 [Compound 251, 1-(7-methylthieno[3,2-d]pyrimidin-4-yl)-N^3-(3-fluoro-4-(3-(S)-methyl-4-((1S,2S,4R)-bicyclo[2.2.1]heptan-2-yl)piperazin-1-yl)phenyl)-1H-1,2,4-triazole-3,5-diamine]
< 1	–	Cc1cc(Nc2nc(N)n(-c3ncnc4c(C)csc34)n2)ccc1N1CCN([C@H]2C[C@@H]3CC[C@H]2C3)CC1 [Compound 252, 1-(7-methylthieno[3,2-d]pyrimidin-4-yl)-N^3-(3-methyl-4-(4-((1S,2S,4R)-bicyclo[2.2.1]heptan-2-yl)piperazin-1-yl)phenyl)-1H-1,2,4-triazole-3,5-diamine]
< 1	–	Cc1cc(Nc2nc(N)n(-c3ncnc4c(C)csc34)n2)ccc1N1CCN([C@H]2C[C@@H]3CC[C@H]2C3)[C@@H](C)C1 [Compound 253, 1-(7-methylthieno[3,2-d]pyrimidin-4-yl)-N^3-(3-methyl-4-(3-(S)-methyl-4-((1S,2S,4R)-bicyclo[2.2.1]heptan-2-yl)piperazin-1-yl)phenyl)-1H-1,2,4-triazole-3,5-diamine]
< 1	–	Cc1cc(Nc2nc(N)n(-c3ncnc4c(C)csc34)n2)ccc1N1CCN([C@H]2C[C@@H]3CC[C@H]2C3)[C@H](C)C1 [Compound 254, 1-(7-methylthieno[3,2-d]pyrimidin-4-yl)-N^3-(3-methyl-4-(3-(R)-methyl-4-((1S,2S,4R)-bicyclo[2.2.1]heptan-2-yl)piperazin-1-yl)phenyl)-1H-1,2,4-triazole-3,5-diamine]
< 1	–	C[C@H]1CN(c2ccc(Nc3nc(N)n(-c4ncnc5ccsc45)n3)cc2F)CCN1[C@H]1C[C@@H]2CC[C@H]1C2 [Compound 255, 1-thieno[3,2-d]pyrimidin-4-yl-N^3-(3-fluoro-4-(3-(S)-methyl-4-((1S,2S,4R)-bicyclo[2.2.1]heptan-2-yl)piperazin-1-yl)phenyl)-1H-1,2,4-triazole-3,5-diamine]
–	< 1	COc1ccc2nc(Cl)c(-n3nc(Nc4ccc(N5CCC(N6CCCC6)CC5)c(F)c4)nc3N)nc2c1 [Compound 256, 1-(2-chloro-6-methoxy-quinoxalin-3-yl)-N^3-(3-fluoro-4-(4-(pyrrolidin-1-yl)piperidin-1-yl)phenyl)-1H-1,2,4-triazole-3,5-diamine]
–	< 1	Nc1nc(Nc2ccc(N3CCC(N4CCCC4)CC3)c(F)c2)nn1-c1cc(-c2ccccc2)ccn1 [Compound 259, 1-(4-phenylpyridin-2-yl)-N^3-(3-fluoro-4-(4-(pyrrolidin-1-yl)piperidin-1-yl)phenyl)-1H-1,2,4-triazole-3,5-diamine]
–	< 1	Cc1csc2c(-n3nc(Nc4ccc(N5CCC(N6CC7CCC6C7)CC5)c(F)c4)nc3N)ncnc12 (stereo not drawn) [Compound 260, 1-(7-methylthieno[3,2-d]pyrimidin-4-yl)-N^3-(3-fluoro-4-(4-(2-azabicyclo[2.2.1]heptan-2-yl)piperidin-1-yl)phenyl)-1H-1,2,4-triazole-3,5-diamine]
–	< 1	Cc1csc2c(-n3nc(Nc4ccc(C5CCN(C6CC7CCC6C7)CC5)cc4)nc3N)ncnc12 (stereo not drawn) [Compound 261, 1-(7-methylthieno[3,2-d]pyrimidin-4-yl)-N^3-(4-(1-(bicyclo[2.2.1]heptan-2-yl)piperidin-4-yl)phenyl)-1H-1,2,4-triazole-3,5-diamine]

SMILES	IC50 [1] [µM]	IC50 [2] [µM]
Cc1csc2c(-n3nc(Nc4ccc(N5CCN([C@H]6C[C@@H]7CC[C@H]6C7)[C@@H](C)C5)c(F)c4)nc3N)nc(Cl)nc12 [Compound 257]	< 1	–

Source: patent US10166216B2 (Rigel Pharmaceuticals, Inc., priority 2006, dated 2019)
